In patent US7989494B2, “Polymorphs of N-hydroxy-3-[4-[[[2-(2-methyl-1H-indol-3-yl)ethyl]amino]methyl]phenyl]-2E-2-propenamide” (Novartis AG, priority 2006, dated 2011):
Where a name gives a salt, the structure may show the parent alone.

What was measured:
Assay type in all cases: physicochemical
[1] = Aqueous solubility; details: water
[2] = Solubility in organic solvents
[3] = Intrinsic dissolution
[4] = Hygroscopicity (descriptive)
[5] = Sorption-desorption isotherms, VTI humidity balance; details: for Sorption: 25° C., first sorption cycle; for Desorption: in % (unit assumed)
Description: Sorption-desorption isotherms were recorded by a VTI humidity balance. The salts of (N-hydroxy-3-[4-[[[2-(2-methyl-1H-indol-3-yl)ethyl]amino]methyl]phenyl]-2E-2-propenamide were first subjected to a drying step (25° C., r.h. below 2%, 2 hours) and then to a sorption-desorption-sorption sequence, with each RH % step retained for 3 hours. The free base was kept below 2% r.h. for several hours, and thus was completely dehydrated after the drying step. Only the data of the first sorption cycle are given in the table, since, in all cases, the two sorption cycles were very similar.

[6] = Equilibration in solvents and aqueous media, solid form by XRPD

SMILES	aqueous solubility [1]	intrinsic dissolution [3]	hygroscopicity [4]	moisture at 85% r.h. [5]	Sorption ([5]; Sample RH % 1.5)	Sorption ([5]; Sample RH % 5)	Desorption ([5]; Sample RH % 5)	Sorption ([5]; Sample RH % 25)	Desorption ([5]; Sample RH % 25)	Sorption ([5]; Sample RH % 50)	Desorption ([5]; Sample RH % 50)	Sorption ([5]; Sample RH % 75)	Desorption ([5]; Sample RH % 75)	Sorption ([5]; Sample RH % 85)	Desorption ([5]; Sample RH % 85)	Sorption ([5]; Sample RH % 95)	Desorption ([5]; Sample RH % 95)	XRPD form after equilibration ([6]; 0.1 N HCl)	XRPD form after equilibration ([6]; 2-Propanol)	XRPD form after equilibration ([6]; Acetone)	further results
Cc1[nH]c2ccccc2c1CCNCc1ccc(/C=C/C(=O)NO)cc1 [Form A of the mesylate salt, N-hydroxy-3-[4-[[[2-(2-methyl-1H-indol-3-yl)ethyl]amino]methyl]phenyl]-2E-2-propenamide]	12900 µg/mL	high	very slightly hygroscopic	less than 0.35%	0%	0.03%	−0.03	0.1%	0.07	0.16%	0.16	0.23%	0.25	0.31%	0.33	0.82%	0.82	hydrochloride salt	No change	No change	solubility in methanol and ethanol ([2]; methanol and ethanol): high solubility; solubility in other common / remaining organic solvents ([2]; other common organic solvents): appreciable solubility; XRPD form after equilibration ([6]; Ethanol): No change; XRPD form after equilibration ([6]; Ethyl Acetate): No change; XRPD form after equilibration ([6]; Water, listed as Mesylate): Changed to new; XRPD form after equilibration ([6]; pH = 6.8 buffer (phosphate)): free base; XRPD form after equilibration ([6]; water): converts to form B
Cc1[nH]c2ccccc2c1CCNCc1ccc(/C=C/C(=O)NO)cc1 [Form A of the L-tartarate salt, N-hydroxy-3-[4-[[[2-(2-methyl-1H-indol-3-yl)ethyl]amino]methyl]phenyl]-2E-2-propenamide]	3500 µg/mL	good	slightly hygroscopic	less than 0.5%	0%	0.04%	−0.09	0.11%	0.03	0.2%	0.16	0.31%	0.36	0.35%	0.42	0.49%	0.49	chloride salt	No change	Form C of the tartarate salt is obtained	solubility in acetone, ethyl acetate and other common organic solvents ([2]; acetone, ethyl acetate and other common organic solvents): good solubility; solubility in alcohols ([2]; alcohols): limited solubility; XRPD form after equilibration ([6]; Acetone, listed as L-Tartarate): No change; XRPD form after equilibration ([6]; Ethanol): No change; XRPD form after equilibration ([6]; Ethyl Acetate): No change; XRPD form after equilibration ([6]; Methanol): converts to form C; XRPD form after equilibration ([6]; Methanol, listed as L-Tartarate): Changed to new; XRPD form after equilibration ([6]; pH = 6.8 buffer (phosphate)): free base; XRPD form after equilibration ([6]; water): No change
